Measured values from patent publication US20070238756A1, “COMBINATIONS OF DIPEPTIDYL PEPTIDASE IV INHIBITORS AND OTHER ANTIDIABETIC AGENTS FOR THE TREATMENT OF DIABETES MELLITUS” (priority 2000, published 2007).

Key:
DPP-IV = target: T1, DPP-IV (Rattus norvegicus, UniProt P14740); experiment: Plasma DPP-IV activity in treated ZDF rats (Gly-Pro-AMC fluorogenic substrate); assay type: in vivo; settings: male ZDF fa/fa rats, oral gavage BID for 7 days; Compound (I) 5 mg/kg, Compound (II) 100 mg/kg, combination of both doses; n=6; control 5544 ± 485
T1 construct: from tissue; host or cells: plasma of treated male ZDF fa/fa rats
Protocol: DPP-IV activity was measured using the fluorogenic substrate Gly-Pro-AMC ([…]) according to the manufacturer's specification (Enzyme System Products, Livermore Calif.). The substrate was mixed with 50 mM Tris, pH 7.8, in plasma (20% final v/v) and the samples were incubated for 5-20 min at 30 °C. DPP-IV activity was determined by measuring fluorescence using a cytofluor spectrofluoremeter with the filters set at 360 nm excitation and 460 nm emission.

male ZDF fa/fa rats [1] = experiment: % HbA1C 7 day change in ZDF rats; assay type: in vivo, rat; settings: oral gavage BID for 7 days, Compound (I) 5 mg/kg, Compound (II) 100 mg/kg, combination of both doses, n=6, control 1.63 ± 1.12
Protocol: Age and weight matched male ZDF fa/fa rats (Genetic Models, Inc., Indianapolis, Ind.) were housed individually at 72° F. and 50% relative humidity with a 12 h light/dark cycle and fed PMI 5008 Formulab Diet (PMI Nutrition International, Saint Louis, Mo.).
(§1) Rats were anesthetized with isofluorane for cardiac blood collection 30 minutes after administration of the glucose solution. Serum chemistry measurements were obtained using an automated chemistry analyzer (ILab600, Instrument Laboratory, Lexington, Mass.).
Results from each group (n=6) were averaged and compared to vehicle treated rats to determine significance and are shown in Table I.

male ZDF fa/fa rats [2] = experiment: Glucose tolerance test, plasma glucose 30 min after intraperitoneal glucose, in ZDF rats; assay type: in vivo, rat; settings: oral gavage BID for 7 days, i.p. glucose 30 min after last dose, blood 30 min after glucose, Compound (I) 5 mg/kg, Compound (II) 100 mg/kg, combination of both doses, n=6, control 695 ± 24
Protocol: For glucose tolerance measurements, rats were treated with test compound for 7 days and given an intraperitoneal injection of a glucose solution in saline 30 minutes after the last dose of test compound.
as §1

T1 sequence (P14740 37-767 limits assumed): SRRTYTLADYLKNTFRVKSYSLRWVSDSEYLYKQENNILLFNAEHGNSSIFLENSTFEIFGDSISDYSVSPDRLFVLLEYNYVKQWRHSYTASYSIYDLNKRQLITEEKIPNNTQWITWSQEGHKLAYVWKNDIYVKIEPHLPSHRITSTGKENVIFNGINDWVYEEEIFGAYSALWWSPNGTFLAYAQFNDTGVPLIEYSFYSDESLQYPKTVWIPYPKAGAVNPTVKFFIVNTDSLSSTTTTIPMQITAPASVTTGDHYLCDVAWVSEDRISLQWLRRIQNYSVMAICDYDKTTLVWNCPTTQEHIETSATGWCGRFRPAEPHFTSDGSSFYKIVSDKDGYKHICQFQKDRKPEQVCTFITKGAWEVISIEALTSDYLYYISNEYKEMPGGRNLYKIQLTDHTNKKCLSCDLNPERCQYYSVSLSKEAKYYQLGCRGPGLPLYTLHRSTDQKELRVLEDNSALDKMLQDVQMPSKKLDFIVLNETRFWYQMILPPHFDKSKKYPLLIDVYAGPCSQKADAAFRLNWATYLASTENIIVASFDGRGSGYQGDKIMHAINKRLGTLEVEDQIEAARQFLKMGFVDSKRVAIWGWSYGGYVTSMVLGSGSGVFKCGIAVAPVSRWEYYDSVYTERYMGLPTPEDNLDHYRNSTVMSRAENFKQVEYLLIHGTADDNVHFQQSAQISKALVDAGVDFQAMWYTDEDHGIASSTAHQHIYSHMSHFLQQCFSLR

Plasma DPP-IV activity (DPP-IV)	Compound	% HbA1C (7 day change) (male ZDF fa/fa rats [1]) [%]	Plasma Glucose (30 min GTT) (male ZDF fa/fa rats [2])
4104 ± 399	CN(CCOc1ccc(CC2SC(=O)NC2=O)cc1)c1ccccn1 (centres unmarked) [Compound (I), 5-[4-[2-(N-methyl-N-(2-pyridyl)amino)ethoxy]benzyl]thiazolidine-2,4-dione]	0.79 ± 0.54	665 ± 40
–	CC[C@H](C)[C@H](N)C(=O)N1CCSC1 [Compound (II), isoleucine thiazolidide]	1.81 ± 1.24	684 ± 60
